Data from patent US11970511B2, “Tetrahydropyran-based thiodisaccharide mimics as Galectin-3 inhibitors” (BRISTOL-MYERS SQUIBB COMPANY, priority 2018, dated 2024).

Each molecule was assayed against His-tagged recombinant human Gal-3 (hGal-3) (Homo sapiens, UniProt P17931) (assay: Gal-3 HTRF assay: His-tagged hGal-3 binding to B-ASF, Anti-His terbium antibody / Streptavidin d2 detection). Settings: 15 nM hGal-3, 15 nM B-ASF, three replicates, room temperature.
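Also: compound preincubated 30 min with hGal-3, then 1 h with B-ASF, DMSO wells with B-ASF serving as positive control and those lacking B-ASF as negative control.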

Sequence of His-tagged recombinant human Gal-3 (hGal-3) (P17931 whole entry): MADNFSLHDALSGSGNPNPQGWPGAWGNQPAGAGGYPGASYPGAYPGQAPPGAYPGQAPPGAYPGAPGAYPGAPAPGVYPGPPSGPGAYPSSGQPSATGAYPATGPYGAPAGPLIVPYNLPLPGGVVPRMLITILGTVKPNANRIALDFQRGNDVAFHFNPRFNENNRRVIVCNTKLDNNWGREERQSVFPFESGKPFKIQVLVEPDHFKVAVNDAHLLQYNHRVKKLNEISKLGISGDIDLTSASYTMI

Row | IC50 [nM] | Structure (SMILES)
1 | 19 | COc1ncc(-c2cn(C3COCC(SC4OC(CO)C(O)C(n5cc(-c6cc(F)c(F)c(F)c6)nn5)C4OCC(=O)N4CC(C)OC(C)C4)C3O)nn2)cn1 (single isomer, unassigned) [Example 32]
2 | 23 | COc1cnc(-c2cn([C@H]3COC[C@@H](S[C@@H]4O[C@H](CO)[C@H](O)[C@H](n5cc(-c6cc(F)c(F)c(F)c6)nn5)[C@H]4OC)[C@@H]3O)nn2)nc1N [Example 21, (2R,3R,4S,5R,6S)-6-(((3R,4R,5S)-5-(4-(4-amino-5-methoxypyrimidin-2-yl)-1H-1,2,3-triazol-1-yl)-4-hydroxytetrahydro-2H-pyran-3-yl)thio)-2-(hydroxymethyl)-5-methoxy-4-(4-(3,4,5-trifluorophenyl)-1H-1,2,3-triazol-1-yl)tetrahydro-2H-pyran-3-ol]
3 | 15 | O=C(O)COC1C(SC2COCC(n3cc(-c4cncnc4)nn3)C2O)OC(CO)C(O)C1n1cc(-c2cc(F)c(F)c(F)c2)nn1 [Example 26, 2-(((2S,3R,4S,5R,6R)-5-hydroxy-2-(((3R,4R,5S)-4-hydroxy-5-(4-(pyrimidin-5-yl)-1H-1,2,3-triazol-1-yl)tetrahydro-2H-pyran-3-yl)thio)-6-(hydroxymethyl)-4-(4-(3,4,5-trifluorophenyl)-1H-1,2,3-triazol-1-yl)tetranydro-2H-pyran-3-yl)oxy)acetic acid]
4 | 17 | COC(=O)COC1C(SC2COCC(n3cc(-c4cncnc4)nn3)C2O)OC(CO)C(O)C1n1cc(-c2cc(F)c(F)c(F)c2)nn1 [Example 27, methyl 2-(((2S,3R,4S,5R,6R)-5-hydroxy-2-(((3R,4R,5S)-4-hydroxy-5-(4-(pyriin-5-yl)-1H-1,2,3-triazol-1-yl)tetrahydro-2H-pyran-3-yl)thio)-6-(hydroxymethyl)-4-(4-(3,4,5-trifluorophenyl)-1H-1,2,3-triazol-1-yl)tetrahydro-2H-pyran-3-yl)oxy)acetate]
5 | 10 | O=C(CO[C@@H]1[C@@H](n2cc(-c3cc(F)c(F)c(F)c3)nn2)[C@@H](O)[C@@H](CO)O[C@H]1S[C@@H]1COC[C@H](n2cc(-c3cncnc3)nn2)[C@H]1O)N1CCOCC1 [Example 28, 2-(((2S,3R,4S,5R,6R)-5-hydroxy-2-(((3R,4R,5S)-4-hydroxy-5-(4-(pyrimidin-5-yl)-1H-1,2,3-triazol-1-yl)tetrahydro-2H-pyran-3-yl)thio)-6-(hydroxymethyl)-4-(4-(3,4,5-trifluorophenyl)-1H-1,2,3-triazol-1-yl)tetrahydro-2H-pyran-3-yl)oxy)-1-morpholinoethan-1-one]
6 | 25 | CN(C(=O)COC1C(SC2COCC(n3cc(-c4cncnc4)nn3)C2O)OC(CO)C(O)C1n1cc(-c2cc(F)c(F)c(F)c2)nn1)c1ccccc1 [Example 29, 2-(((2S,3R,4S,5R,6R)-5-hydroxy-2-(((3R,4R,5S)-4-hydroxy-5-(4-(pyrimidin-5-yl)-1H-1,2,3-triazol-1-yl)tetrahydro-2H-pyran-3-yl)thio)-6-(hydroxymethy)-4-(4-(3,4,5-trifluorophenyl)-1H-1,2,3-triazol-1-yl)-2H-pyran-3-yl)oxy)-N-methyl-N-phenylacetamide]
7 | 8 | COc1ncc(-c2cn([C@H]3COC[C@@H](S[C@@H]4O[C@H](CO)[C@H](O)[C@H](n5cc(-c6cc(F)c(F)c(F)c6)nn5)[C@H]4OCC(=O)O)[C@@H]3O)nn2)cn1 [Example 30, 2-(((2S,3R,4S,5R,6R)-5-hydroxy-2-(((3R,4R,5S)-4-hydroxy-5-(4-(2-methoxypyrimidin-5-yl)-1H-1,2,3-triazol-1-yl)tetrahydro-2H-pyran-3-yl)thio)-6-(hydroxymethyl)-4-(4-(3,4,5-trifluorophenyl)-1H-1,2,3-triazol-1-yl)tetrahydro-2H-pyran-3-yl)oxy)acetic acid]
8 | 13 | COc1ncc(-c2cn([C@H]3COC[C@@H](S[C@@H]4O[C@H](CO)[C@H](O)[C@H](n5cc(-c6cc(F)c(F)c(F)c6)nn5)[C@H]4OCC(=O)N4CCOCC4)[C@@H]3O)nn2)cn1 [Example 31, 2-(((2S,3R,4S,5R,6R)-5-hydroxy-2-(((3R,4R,5S)-4-hydroxy-5-(4-(2-methoxypyrimidin-5-yl)-1H-1,2,3-triazol-1-yl)tetrahydro-2H-pyran-3-yl)thio)-6-(hydroxymethyl)-4-(4-(3,4,5-trifluorophenyl)-1H-1,2,3-triazol-1-yl)tetrahydro-2H-pyran-3-yl)oxy)-1-morpholinoethan-1-one]
9 | 12 | COc1ncc(-c2cn(C3COCC(SC4OC(CO)C(O)C(n5cc(-c6cc(F)c(F)c(F)c6)nn5)C4OCC(=O)N4CCS(=O)(=O)CC4)C3O)nn2)cn1 [Example 33, 1-(1,1-dioxidothiomorpholino)-2-(((2S,3R,4S,5R,6R)-5-hydroxy-2-(((3R,4R,5S)-4-hydroxy-5-(4-(2-methoxypyrimidin-5-yl)-1-1,2,3-triazol-1-yl)tetrahydro-2H-pyran-3-yl)thio)-6-(hydroxymethyl)-4-(4-(3,4,5-trifluorophenyl)-1H-1,2,3-triazol-1-yl)tetrahydro-2H-pyran-3-yl)oxy)ethan-1-one]
10 | 24 | COc1ncc(-c2cn([C@H]3COC[C@@H](S[C@@H]4O[C@H](CO)[C@H](O)[C@H](n5cc(-c6cc(F)c(F)c(F)c6)nn5)[C@H]4OCC(=O)N4CC(O)C4)[C@@H]3O)nn2)cn1 [Example 34, 2-(((2S,3R,4S,5R,6R)-5-hydroxy-2-(((3R,4R,5S)-4-hydroxy-5-(4-(2-methoxypyrimidin-5-yl)-1H-1,2,3-triazol-1-yl)tetrahydro-2H-pyran-3-yl)thio)-6-(hydroxymethyl)-4-(4-(3,4,5-trifluorophenyl)-1H-1,2,3-triazol-1-yl)tetrahydro-2H-pyran-3-yl)oxy)-1-(3-hydroxyazetidin-1-yl)ethan-1-one]
11 | 32 | COc1ncc(-c2cn([C@H]3COC[C@@H](S[C@@H]4O[C@H](CO)[C@H](O)[C@H](n5cc(-c6cc(F)c(F)c(F)c6)nn5)[C@H]4OCC(=O)N4CCC4)[C@@H]3O)nn2)cn1 [Example 35, 1-(azetidin-1-yl)-2-(((2S,3R,4S,5R,6R)-5-hydroxy-2-(((3R,4R,5S)-4-hydroxy-5-(4-(2-methoxypyrimidin-5-yl)-1H-1,2,3-triazol-1-yl)tetrahydro-2H-pyran-3-yl)thio)-6-(hydroxymethyl)-4-(4-(3,4,5-trifluorophenyl)-1H-1,2,3-triazol-1-yl)tetrahydro-2H-pyran-3-yl)oxy)ethan-1-one]
12 | 1100 | CO[C@@H]1[C@@H](n2cc(-c3cccnc3)nn2)[C@@H](O)[C@@H](CO)O[C@H]1S[C@@H]1COC[C@H](n2cc(-c3ccccc3)nn2)[C@H]1O [Example A1, (2R,3R,4S,5R,6S)-6-(((3R,4R,5S)-4-hydroxy-5-(4-phenyl-1H-1,2,3-triazol-1-yl)tetrahydro-2H-pyran-3-yl)thio)-2-(hydroxymethyl)-5-methoxy-4-(4-(pyridin-3-yl)-1H-1,2,3-triazol-1-yl)tetrahydro-2H-pyran-3-ol]
13 | 1100 | CO[C@@H]1[C@@H](n2cc(-c3ccncc3)nn2)[C@@H](O)[C@@H](CO)O[C@H]1S[C@@H]1COC[C@H](n2cc(-c3ccccc3)nn2)[C@H]1O [Example A2, (2R,3R,4S,5R,6S)-6-(((3R,4R,5S)-4-hydroxy-5-(4-phenyl-1H-1,2,3-triazol-1-yl)tetrahydro-2H-pyran-3-yl)thio)-2-(hydroxymethyl)-5-methoxy-4-(4-(pyridin-4-yl)-1H-1,2,3-triazol-1-yl)tetrahydro-2H-pyran-3-ol]
14 | 11000 | CO[C@@H]1[C@@H](n2cc(-c3ccc(-c4ccccc4)cc3)nn2)[C@@H](O)[C@@H](CO)O[C@H]1S[C@@H]1COC[C@H](n2cc(-c3ccccc3)nn2)[C@H]1O [Example A3, (2R,3R,4S,5R,6S)-4-(4-([1,1′-biphenyl]-4-yl)-1H-1,2,3-triazol-1-yl)-6-(((3R,4R,5S)-4-hydroxy-5-(4-phenyl-1H-1,2,3-triazol-1-yl)tetrahydro-2H-pyran-3-yl)thio)-2-(hydroxymethyl)-5-methoxytetrahydro-2H-pyran-3-ol]
15 | 26 | CO[C@@H]1[C@@H](n2cc(-c3cccc(F)c3)nn2)[C@@H](O)[C@@H](CO)O[C@H]1S[C@@H]1COC[C@H](n2cc(-c3ccccc3)nn2)[C@H]1O [Example A4, (2R,3R,4S,5R,6S)-4-(4-(3-fluorophenyl)-1H-1,2,3-triazol-1-yl)-6-(((3R,4R,5S)-4-hydroxy-5-(4-phenyl-1H-1,2,3-triazol-1-yl)tetrahydro-2H-pyran-3-yl)thio)-2-(hydroxymethyl)-5-methoxytetrahydro-2H-pyran-3-ol]
16 | 490 | CO[C@@H]1[C@@H](n2cc(-c3nccs3)nn2)[C@@H](O)[C@@H](CO)O[C@H]1S[C@@H]1COC[C@H](n2cc(-c3ccccc3)nn2)[C@H]1O [Example A5, (2R,3R,4S,5R,6S)-6-(((3R,4R,5S)-4-hydroxy-5-(4-phenyl-1H-1,2,3-triazol-1-yl)tetrahydro-2H-pyran-3-yl)thio)-2-(hydroxymethyl)-5-methoxy-4-(4-(thiazol-2-yl)-1H-1,2,3-triazol-1-yl)tetrahydro-2H-pyran-3-ol]
17 | 360 | CO[C@@H]1[C@@H](n2cc(-c3cncnc3)nn2)[C@@H](O)[C@@H](CO)O[C@H]1S[C@@H]1COC[C@H](n2cc(-c3ccccc3)nn2)[C@H]1O [Example A6, (2R,3R,4S,5R,6S)-6-(((3R,4R,5S)-4-hydroxy-5-(4-phenyl-1H-1,2,3-triazol-1-yl)tetrahydro-2H-pyran-3-yl)thio)-2-(hydroxymethyl)-5-methoxy-4-(4-(pyrimidin-5-yl)-1H-1,2,3-triazol-1-yl)tetrahydro-2H-pyran-3-ol]
18 | 840 | CO[C@@H]1[C@@H](n2cc(-c3cncs3)nn2)[C@@H](O)[C@@H](CO)O[C@H]1S[C@@H]1COC[C@H](n2cc(-c3ccccc3)nn2)[C@H]1O [Example A7, (2R,3R,4S,5R,6S)-6-(((3R,4R,5S)-4-hydroxy-5-(4-phenyl-1H-1,2,3-triazol-1-yl)tetrahydro-2H-pyran-3-yl)thio)-2-(hydroxymethyl)-5-methoxy-4-(4-(thiazol-5-yl)-1H-1,2,3-triazol-1-yl)tetrahydro-2H-pyran-3-ol]
